Laboratory results: the supplement of paper PMC6331611
Values after ≈ are worked out from the molar mass of the structure shown. Structures can show the parent of a compound that is named as a salt.

What was measured:
RAW264.7 = experiment: cytotoxicity (LDH release relative to maximum lysis); higher = more toxic; settings: 50 µM; 2 h
[1] = test system: Salmonella enterica serovar Typhimurium SL1344
[2] = test system: Salmonella enterica serovar Typhimurium SL1344; experiment: intracellular MIC (10-fold luminescence reduction); higher = less potent; settings: RAW264.7 macrophages

SMILES | cytotoxicity (RAW264.7) | MIC ([1]; LPM pH 5.8) | MIC ([1]; MHB) | MIC ([1]; MOPS glucose minimal medium) | intracellular MIC [2]
C[C@H]1O[C@@H](n2cc(F)c(=O)[nH]c2=O)[C@H](O)[C@@H]1O [DOXIFLURIDINE] | 13% | ≤ 0.78 µM | > 50 µM | 1.56 µM (≈ 0.384 µg/mL) | 6.25 µM
C[C@H]1c2cccc(O)c2C(=O)C2=C(O)[C@]3(O)C(=O)C(C(N)=O)=C(O)[C@@H](N(C)C)[C@@H]3[C@@H](O)[C@@H]21 [DOXYCYCLINE HYDROCHLORIDE] | 8.01% | 1.56 µM | 6.25 µM | 6.25 µM | ≤ 0.78 µM
O.O.O=C([O-])CN(CCN(CC(=O)[O-])CC(=O)O)CC(=O)O.[Na+].[Na+] [EDETATE DISODIUM] | 19.1% | > 50 µM | > 50 µM | 50 µM | > 50 µM
CCn1cc(C(=O)O)c(=O)c2cc(F)c(N3CCNCC3)nc21 [ENOXACIN] | 20.8% | 6.25 µM (≈ 2 µg/mL) | ≤ 0.78 µM | ≤ 0.78 µM | 3.13 µM
CC[C@H]1OC(=O)[C@H](C)[C@@H](O[C@H]2C[C@@](C)(OC)[C@@H](O)[C@H](C)O2)[C@H](C)[C@@H](O[C@@H]2O[C@H](C)C[C@H](N(C)C)[C@H]2O)[C@](C)(O)C[C@@H](C)C(=O)[C@H](C)[C@@H](O)[C@]1(C)O [ERYTHROMYCIN] | 6.32% | > 50 µM | > 50 µM | > 50 µM | 1.56 µM
C[C@]12CC[C@@H]3c4ccc(OC(=O)c5ccccc5)cc4CC[C@H]3[C@@H]1CC[C@@H]2O [ESTRADIOL BENZOATE] | 20.3% | > 50 µM | > 50 µM | > 50 µM | > 50 µM
CCOc1ccc(Cc2nccc3cc(OCC)c(OCC)cc23)cc1OCC [ETHAVERINE HYDROCHLORIDE] | 12.8% | > 50 µM | > 50 µM | > 50 µM | > 50 µM
CCN(CC)C(C)CN1c2ccccc2Sc2ccccc21 (stereo not given) [ETHOPROPAZINE HYDROCHLORIDE] | 11.8% | > 50 µM | > 50 µM | > 50 µM | ≤ 0.78 µM
Nc1ccncc1 [FAMPRIDINE] | 20.4% | > 50 µM | > 50 µM | > 50 µM | > 50 µM
CS(=O)(=O)c1ccc([C@@H](O)[C@@H](CF)NC(=O)C(Cl)Cl)cc1 [FLORFENICOL] | 21.3% | ≤ 0.78 µM | 12.5 µM (≈ 4.48 µg/mL) | 6.25 µM (≈ 2.24 µg/mL) | 6.25 µM
O=c1[nH]c(=O)n([C@H]2C[C@H](O)[C@@H](CO)O2)cc1F [FLOXURIDINE] | 18.7% | ≤ 0.78 µM | ≤ 0.78 µM | ≤ 0.78 µM | > 50 µM
CC1CCc2cc(F)cc3c(=O)c(C(=O)O)cn1c23 (stereo not given) [FLUMEQUINE] | 20.1% | ≤ 0.78 µM | 6.25 µM (≈ 1.63 µg/mL) | 1.56 µM (≈ 0.408 µg/mL) | > 50 µM
O=c1[nH]cc(F)c(=O)[nH]1 [FLUOROURACIL] | 8.29% | ≤ 0.78 µM | > 50 µM | ≤ 0.78 µM | ≤ 0.78 µM
O=C1OCCN1/N=C/c1ccc([N+](=O)[O-])o1 [FURAZOLIDONE] | 6.45% | 6.25 µM (≈ 1.41 µg/mL) | 12.5 µM (≈ 2.81 µg/mL) | 12.5 µM (≈ 2.81 µg/mL) | ≤ 0.78 µM
COc1c(N2CCNC(C)C2)c(F)cc2c(=O)c(C(=O)O)cn(C3CC3)c12 (stereo not given) [GATIFLOXACIN] | 21.7% | ≤ 0.78 µM | ≤ 0.78 µM | ≤ 0.78 µM | ≤ 0.78 µM
CO/N=C1\CN(c2nc3c(cc2F)c(=O)c(C(=O)O)cn3C2CC2)CC1CN (stereo not given) [GEMIFLOXACIN MESYLATE] | 5.86% | ≤ 0.78 µM | ≤ 0.78 µM | ≤ 0.78 µM | 1.56 µM
CCCCC(CC)CN1CN(CC(CC)CCCC)CC(C)(N)C1 (stereo not given) [HEXETIDINE] | 49.5% | 25 µM (≈ 8.49 µg/mL) | > 50 µM | > 50 µM | > 50 µM
CCCCCN(C)CCC(O)(P(=O)(O)O)P(=O)(O)O [IBANDRONATE SODIUM] | 6.92% | > 50 µM | > 50 µM | > 50 µM | 1.56 µM
C[C@H]1COc2c(N3CCN(C)CC3)c(F)cc3c(=O)c(C(=O)O)cn1c23 [LEVOFLOXACIN] | 21% | ≤ 0.78 µM | ≤ 0.78 µM | ≤ 0.78 µM | ≤ 0.78 µM
N[C@@H](Cc1cc(I)c(Oc2ccc(O)c(I)c2)c(I)c1)C(=O)O [LIOTHYRONINE] | 6.23% | > 50 µM | > 50 µM | > 50 µM | > 50 µM
CCOC(=O)Nc1nc2ccccc2[nH]1 [LOBENDAZOLE] | 21.1% | 50 µM (≈ 10.3 µg/mL) | > 50 µM | > 50 µM | > 50 µM

SMILES | cytotoxicity (RAW264.7) | MIC ([1]; LPM pH 5.8) | MIC ([1]; MHB) | MIC ([1]; MOPS glucose minimal medium) | intracellular MIC [2]
CCn1cc(C(=O)O)c(=O)c2cc(F)c(N3CCNC(C)C3)c(F)c21 (stereo not given) [LOMEFLOXACIN HYDROCHLORIDE] | 15.9% | 1.56 µM | ≤ 0.78 µM | ≤ 0.78 µM | ≤ 0.78 µM
CCCCc1nc(Cl)c(CO)n1Cc1ccc(-c2ccccc2-c2nnn[nH]2)cc1 [LOSARTAN] | 5.92% | > 50 µM | > 50 µM | > 50 µM | > 50 µM
Cc1ccc(Nc2c(F)cccc2Cl)c(CC(=O)O)c1 [LUMIRACOXIB] | 7.05% | > 50 µM | > 50 µM | > 50 µM | ≤ 0.78 µM
NCc1ccc(S(N)(=O)=O)cc1 [MAFENIDE HYDROCHLORIDE] | 7.52% | > 50 µM | > 50 µM | > 50 µM | 1.56 µM
CNCCCC12CCC(c3ccccc31)c1ccccc12 [MAPROTILINE HYDROCHLORIDE] | 34% | > 50 µM | > 50 µM | > 50 µM | 3.13 µM
C=C1c2c(Cl)ccc(O)c2C(=O)C2=C(O)[C@]3(O)C(=O)C(C(N)=O)=C(O)[C@@H](N(C)C)[C@@H]3[C@@H](O)[C@H]12.O=C(O)c1cc(S(=O)(=O)O)ccc1O [MECLOCYCLINE SULFOSALICYLATE] | 16.3% | ≤ 0.78 µM | ≤ 0.78 µM | ≤ 0.78 µM | 3.13 µM
Cc1ccc(Cl)c(Nc2ccccc2C(=O)O)c1Cl [MECLOFENAMATE SODIUM] | 7.81% | > 50 µM | > 50 µM | > 50 µM | > 50 µM
CC(=O)[C@H]1CC[C@H]2[C@@H]3C[C@H](C)C4=CC(=O)CC[C@]4(C)[C@H]3[C@@H](O)C[C@]12C [MEDRYSONE] | 7.6% | > 50 µM | > 50 µM | > 50 µM | > 50 µM
CCCNC(C)(C)COC(=O)c1ccccc1 [MEPRYLCAINE HYDROCHLORIDE] | 6.92% | > 50 µM | > 50 µM | > 50 µM | 1.56 µM
C[C@@H](O)[C@H]1C(=O)N2C(C(=O)O)=C(S[C@@H]3CN[C@H](C(=O)N(C)C)C3)[C@H](C)[C@H]12 [MEROPENEM] | 14.9% | 3.13 µM (≈ 1.2 µg/mL) | 12.5 µM (≈ 4.79 µg/mL) | 6.25 µM (≈ 2.4 µg/mL) | 3.13 µM
CN1C[C@H](CNC(=O)OCc2ccccc2)C[C@@H]2c3cccc4c3c(cn4C)C[C@H]21 [METERGOLINE] | 16.2% | > 50 µM | > 50 µM | > 50 µM | ≤ 0.78 µM
C=C1c2cccc(O)c2C(=O)C2=C(O)[C@]3(O)C(=O)C(C(N)=O)=C(O)[C@@H](N(C)C)[C@@H]3[C@@H](O)[C@H]12 [METHACYCLINE HYDROCHLORIDE] | 13.8% | ≤ 0.78 µM | 6.25 µM | 3.13 µM | 3.13 µM
C[C@H]1C[C@@H]2[C@H]([C@@H](O)C[C@@]3(C)[C@H]2CC[C@]3(O)C(=O)CO)[C@@]2(C)C=CC(=O)C=C12 [METHYLPREDNISOLONE] | 8.21% | > 50 µM | > 50 µM | > 50 µM | > 50 µM
CN(C)c1ccc(O)c2c1C[C@H]1C[C@H]3[C@H](N(C)C)C(O)=C(C(N)=O)C(=O)[C@@]3(O)C(O)=C1C2=O [MINOCYCLINE HYDROCHLORIDE] | 21% | ≤ 0.78 µM | 12.5 µM | 6.25 µM | 12.5 µM
COc1c(N2C[C@@H]3CCCN[C@@H]3C2)c(F)cc2c(=O)c(C(=O)O)cn(C3CC3)c12 [MOXIFLOXACIN HYDROCHLORIDE] | 24.3% | > 50 µM | > 50 µM | > 50 µM | > 50 µM
C/C(=C\C(=O)OCCCCCCCCC(=O)O)C[C@@H]1OC[C@H](C[C@@H]2O[C@H]2[C@@H](C)[C@H](C)O)[C@@H](O)[C@H]1O [MUPIROCIN] | 15.4% | ≤ 0.78 µM | > 50 µM | 25 µM (≈ 12.5 µg/mL) | 25 µM
CC1CCc2c(N3CCC(O)CC3)c(F)cc3c(=O)c(C(=O)O)cn1c23 (stereo not given) [NADIFLOXACIN] | 12.7% | ≤ 0.78 µM | 3.13 µM (≈ 1.13 µg/mL) | 1.56 µM (≈ 0.562 µg/mL) | 1.56 µM
CCn1cc(C(=O)O)c(=O)c2ccc(C)nc21 [NALIDIXIC ACID] | 16% | ≤ 0.78 µM | 25 µM (≈ 5.81 µg/mL) | 6.25 µM (≈ 1.45 µg/mL) | > 50 µM
CO[C@]12C[C@@H](COC(=O)c3cncc(Br)c3)CN(C)[C@@H]1Cc1cn(C)c3cccc2c13 [NICERGOLINE] | 20.4% | > 50 µM | > 50 µM | > 50 µM | 25 µM
COC(=O)C1=C(C)NC(C)=C(C(=O)OCC(C)C)C1c1ccccc1[N+](=O)[O-] (stereo not given) [NISOLDIPINE] | 20.8% | 12.5 µM (≈ 4.86 µg/mL) | > 50 µM | > 50 µM | > 50 µM
